Results published in ChEMBL document CHEMBL1145401, “Design and synthesis of classical and nonclassical 6-arylthio-2,4-diamino-5-ethylpyrrolo[2,3-d]pyrimidines as antifolates” (J Med Chem, 2007).

How the values were obtained:
Dihydrofolate reductase [1] = biological target: T1, Dihydrofolate reductase (Homo sapiens, UniProt P00374); test: Inhibition of human DHFR relative to control; conditions: concentration not given here
[2] = Selectivity ratio of IC50 for rat liver DHFR to IC50 for Pneumocystis carinii DHFR
[3] = Selectivity ratio of IC50 for rat liver DHFR to IC50 for Mycobacterium avium DHFR
Dihydrofolate reductase [4] = biological target: T1, Dihydrofolate reductase
Dihydrofolate reductase [5] = biological target: T2, Dihydrofolate reductase (Pneumocystis carinii, UniProt P16184)
T2 sequence (P16184 whole entry): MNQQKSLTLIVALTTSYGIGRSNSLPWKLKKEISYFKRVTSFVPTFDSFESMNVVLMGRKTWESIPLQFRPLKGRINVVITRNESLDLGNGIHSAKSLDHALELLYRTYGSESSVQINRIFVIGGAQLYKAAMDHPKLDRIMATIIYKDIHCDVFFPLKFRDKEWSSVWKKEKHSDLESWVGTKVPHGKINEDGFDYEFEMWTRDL
Description: Inhibition of Pneumocystis carinii DHFR

[6] = biological target: T3, Bifunctional dihydrofolate reductase-thymidylate synthase (Toxoplasma gondii, UniProt Q07422)
T3 sequence (Q07422 whole entry): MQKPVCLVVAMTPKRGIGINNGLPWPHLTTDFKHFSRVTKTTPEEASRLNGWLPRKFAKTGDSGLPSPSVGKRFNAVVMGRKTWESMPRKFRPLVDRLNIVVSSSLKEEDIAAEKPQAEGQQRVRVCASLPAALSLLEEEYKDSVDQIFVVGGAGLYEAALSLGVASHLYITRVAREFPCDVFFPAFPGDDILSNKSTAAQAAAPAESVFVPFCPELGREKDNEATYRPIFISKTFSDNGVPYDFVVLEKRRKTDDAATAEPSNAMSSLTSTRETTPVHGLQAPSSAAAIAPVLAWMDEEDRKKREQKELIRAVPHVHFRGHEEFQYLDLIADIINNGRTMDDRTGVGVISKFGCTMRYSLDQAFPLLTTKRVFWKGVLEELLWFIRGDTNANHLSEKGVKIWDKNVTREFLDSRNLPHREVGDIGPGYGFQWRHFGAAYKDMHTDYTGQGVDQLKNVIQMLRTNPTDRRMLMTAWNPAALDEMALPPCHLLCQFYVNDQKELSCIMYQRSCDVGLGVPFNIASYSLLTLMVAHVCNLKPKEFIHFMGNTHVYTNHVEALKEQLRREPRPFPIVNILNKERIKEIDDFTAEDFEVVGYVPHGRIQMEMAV
Description: Inhibition of Toxoplasma gondii DHFR

Dihydrofolate reductase [7] = biological target: T4, Dihydrofolate reductase (Mycobacterium avium, UniProt O30463)
T4 sequence (O30463 whole entry): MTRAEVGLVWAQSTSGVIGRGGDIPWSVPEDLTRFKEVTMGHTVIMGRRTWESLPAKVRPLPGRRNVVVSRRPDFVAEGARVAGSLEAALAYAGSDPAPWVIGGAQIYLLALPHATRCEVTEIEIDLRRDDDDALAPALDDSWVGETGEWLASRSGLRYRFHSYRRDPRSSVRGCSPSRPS
Description: Inhibition of Mycobacterium avium DHFR

Dihydrofolate reductase [8] = biological target: T5, Dihydrofolate reductase (Rattus norvegicus, UniProt Q920D2)
T5 sequence (Q920D2 whole entry): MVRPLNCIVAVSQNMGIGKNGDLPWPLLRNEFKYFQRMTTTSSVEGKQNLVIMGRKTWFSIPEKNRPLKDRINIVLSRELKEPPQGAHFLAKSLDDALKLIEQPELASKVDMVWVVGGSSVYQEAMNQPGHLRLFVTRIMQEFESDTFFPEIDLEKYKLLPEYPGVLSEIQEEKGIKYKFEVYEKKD
Description: Inhibition of rat liver DHFR

[9] = Inhibition of Escherichia coli DHFR
[10] = Selectivity ratio of IC50 for human DHFR to IC50 for Escherichia coli DHFR
CCRF-CEM = test: Cytotoxicity against CCRF-CEM cells; format: functional; conditions: Homo sapiens
K562 = test: Cytotoxicity against K562 cells; format: functional; conditions: Homo sapiens
MOLT-4 = test: Cytotoxicity against MOLT4 cells; format: functional; conditions: Homo sapiens
RPMI-8226 = test: Cytotoxicity against RPMI8226 cells; format: functional; conditions: Homo sapiens
SR = test: Cytotoxicity against SR cells; format: functional; conditions: Homo sapiens
NCI-H460 = test: Cytotoxicity against NCI-H460 cells; format: functional; conditions: Homo sapiens
HT-29 = test: Cytotoxicity against HT29 cells; format: functional; conditions: Homo sapiens
SW-620 = test: Cytotoxicity against SW620 cells; format: functional; conditions: Homo sapiens
U-251 = test: Cytotoxicity against U251 cells; format: functional; conditions: Homo sapiens
LOX IMVI = test: Cytotoxicity against LOX IMVI cells; format: functional; conditions: Homo sapiens
PC-3 = test: Cytotoxicity against PC3 cells; format: functional; conditions: Homo sapiens
[11] = biological target: Dihydrofolate reductase (Pneumocystis carinii) (UniProt P16184); conditions: 20 uM
Description: Inhibition of Pneumocystis carinii DHFR at 20 uM

SMILES | Ratio IC50 [2] | Ratio IC50 [3] | IC50 (Dihydrofolate reductase [4]) [µM] | IC50 (Dihydrofolate reductase [5]) [µM] | IC50 [6] [µM] | IC50 (Dihydrofolate reductase [7]) [µM] | IC50 (Dihydrofolate reductase [8]) [µM] | also measured
CCc1c(Sc2c(Cl)cccc2Cl)[nH]c2nc(N)nc(N)c12 | 0.2 | 0.33 | > 28 | 20.6 | 3.8 | 12 | 4 | inhibition (Dihydrofolate reductase [1]): 30%
CCc1c(Sc2ccc(OC)cc2)[nH]c2nc(N)nc(N)c12 | – | – | 2.9 | 53 | 4.62 | 3.07 | 31.8 | –
CCc1c(Sc2ccc([N+](=O)[O-])cc2)[nH]c2nc(N)nc(N)c12 | 0.4 | 8.6 | 5.8 | 8.68 | 0.32 | 0.37 | 3.2 | IC50 [9]: 0.09 µM; Ratio IC50 [10]: 64.4
COc1ccc(Sc2[nH]c3nc(N)nc(N)c3c2C)cc1 | – | – | – | – | – | 0.69 | – | –
Cc1nc(N)c2c(C)c(Sc3ccc(C(=O)N[C@@H](CCC(=O)O)C(=O)O)cc3)[nH]c2n1 | – | – | – | – | – | – | – | GI50 (CCRF-CEM): 0.22 µM; GI50 (K562): 0.027 µM; GI50 (MOLT-4): < 0.01 µM; GI50 (RPMI-8226): < 0.01 µM; GI50 (SR): > 0.1 µM; GI50 (NCI-H460): 0.63 µM; GI50 (HT-29): 0.16 µM; GI50 (SW-620): 0.12 µM; GI50 (U-251): 0.82 µM; GI50 (LOX IMVI): 0.17 µM; GI50 (PC-3): 0.44 µM
CCc1c(Sc2ccc(Cl)cc2Cl)[nH]c2nc(N)nc(N)c12 | 0.2 | 3.3 | 1.4 | 7.19 | 0.22 | 0.35 | 1.17 | IC50 [9]: 0.14 µM; Ratio IC50 [10]: 10
Cc1c(Sc2ccc(Cl)c(Cl)c2)[nH]c2nc(N)nc(N)c12 | 9.1 | 5.8 | – | – | 20 | 19 | 110 | inhibition [11]: 14%
CCc1c(Sc2c(C)cccc2C)[nH]c2nc(N)nc(N)c12 | – | – | – | 30.2 | 7.1 | 18.4 | 10.1 | –
Cc1c(Sc2ccc3ccccc3c2)[nH]c2nc(N)nc(N)c12 | 0.1 | 6.5 | – | – | 0.16 | 0.7 | – | –
CCc1c(Sc2ccccc2)[nH]c2nc(N)nc(N)c12 | – | – | 18 | – | 0.18 | – | – | –
